Bounds are passed on as bounds.

By inhibition is commonly meant the share of the control response that was lost under treatment. Lower therefore signals little suppression.

Assay [1] is described as follows: Antioxidant activity assessed as AAPH radical scavenging activity at 1 to 16 uM by ORAC assay. The assay is classed as functional.
The target in assay [2] is T1, Beta-secretase 1 (Homo sapiens, UniProt P56817). Nature of the assay: Inhibition of BACE 1 (unknown origin) at 50 uM using Rh-EVNLDAEFK-Quencher as substrate after 1 hr by FRET assay relative to control.
Assay [3] concerns the target T1, Beta-secretase 1. The assay is described as follows: Inhibition of BACE 1 (unknown origin) at 10 to 50 uM using Rh-EVNLDAEFK-Quencher as substrate after 1 hr by FRET assay relative to control.

T1 sequence (P56817 whole entry): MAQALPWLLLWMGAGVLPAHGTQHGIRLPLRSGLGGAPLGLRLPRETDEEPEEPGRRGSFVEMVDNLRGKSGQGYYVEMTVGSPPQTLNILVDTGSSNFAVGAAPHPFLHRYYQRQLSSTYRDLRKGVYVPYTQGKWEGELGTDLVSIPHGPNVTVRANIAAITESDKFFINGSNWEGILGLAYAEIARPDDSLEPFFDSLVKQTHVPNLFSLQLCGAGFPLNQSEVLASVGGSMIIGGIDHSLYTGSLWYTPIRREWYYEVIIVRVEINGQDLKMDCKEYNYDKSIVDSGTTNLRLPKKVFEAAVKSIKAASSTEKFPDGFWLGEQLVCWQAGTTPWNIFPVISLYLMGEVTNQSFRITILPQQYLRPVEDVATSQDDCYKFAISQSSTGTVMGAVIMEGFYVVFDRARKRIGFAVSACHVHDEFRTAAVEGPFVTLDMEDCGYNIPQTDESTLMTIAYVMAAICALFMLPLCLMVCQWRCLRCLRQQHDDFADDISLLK

For the compound `O=C1O[C@H]([C@@H](O)CO)C(O)=C1O`, in assay [1], the ORAC (Trolox equivalents) worked out at 62.2. The compound `C[C@@]1(c2cc(-c3cncnc3)c(F)cc2F)CCSC(N)=N1` registered an inhibition against Beta-secretase 1 [2] of 100%. Consider `CCN(CC)CCCC(C)Nc1ccnc2cc(Cl)ccc12` (stereo not drawn), for which the inhibition against Beta-secretase 1 [3] was less than 50%.

Values taken from ChEMBL document CHEMBL4152355, “Novel multi-target compounds in the quest for new chemotherapies against Alzheimer's disease: An experimental and theoretical study” (Bioorg Med Chem, 2018).
